Data on 31 compounds can be found in patent US20250129028A1, “COMPOUNDS AND METHODS FOR YAP/TEAD MODULATION AND INDICATIONS THEREFOR” (Opna Bio SA, priority 2022, published 2025).

In general, IC50 refers to the concentration at which inhibition is half-maximal.

The experiment deals with TEAD-dependent transcription. Nature of the experiment: TEAD-dependent transcription cell-based reporter assay (MSTO-211H+12XGTIIC luciferase). Also noted: species or system human. The following applies: Homo sapiens; MSTO-211H+12XGTIIC cell line, luciferase signal normalized to cell viability, 24 hours compound incubation; read-out: MSTO-211H GMean IC50 (uM) Cell Assay Reporter Cell Variant: TEAD. The text has this: Determine Inhibitor Activity Against TEAD-Dependent Transcription in a Cell-Based Reporter Assay
The human mesothelioma cell line MSTO-211H was stably transfected with a pGL4.21 plasmid containing a synthetic promoter with 12 copies of the GTIIC TEAD response element that drives the expression of a luciferase reporter gene^1 using Lipofectamine transfection reagent (Thermo Fisher). Transfected cells were selected using puromycin and single cell clones expressing this construct (referred to as MSTO-211H+12XGTIIC) were generated by limiting dilution. MSTO-211H cells was characterized by genetic alterations in key components of the Hippo pathway^2, resulting in up-regulation of YAP/TEAD-mediated transcription. […] To evaluate TEAD inhibitors, the MSTO-211H+12XGTIIC cell line was seeded in a 96-well plate in 50 μL of culture media at 1×10^4 cells per well and incubated at 37° C. overnight. Serial dilutions of compounds (in total volume of 50 μL of culture media) were added to the cells and incubated at 37° C. for 24 hours. Each plate included cells treated with DMSO as high controls and cells treated with 20 μM of the reference compound K-975 (a known TEAD inhibitor)^3 as low controls. Cell viability was assayed by the addition of 25 μL of CellTiter-Fluor reagent (Promega) followed by a 30-minute incubation at 37° C. and quantification of the fluorescence signal (Ex400/Em505). Subsequently, luciferase expression was assayed by the addition of 25 μL of ONE-Glo reagent (Promega) followed by a 10-minute incubation at room temperature and quantification of the luminescence signal. The luminescence signal was normalized to the fluorescence signal to correct for any loss in cell viability over the 24-hour compound incubation period. The percentage of inhibition of normalized luminescence signal, indicative of compound-mediated inhibition of TEAD-dependent transcription, at individual compound concentrations relative to high and low controls was calculated. The data were analyzed by using nonlinear regression to generate IC50 values for individual compounds.
Background: In a reporter assay the amount or activity of a reporter protein is the signal.
With `CCCCS(=O)(=O)N1CCc2ccc(Oc3ccc(C(F)(F)F)cc3)cc2C1` [P-0034, 2-(butylsulfonyl)-7-(4-(trifluoromethyl)phen-oxy)-1,2,3,4-tetrahydro-isoquinoline], the IC50 is 0.001 to 10 µM. The figure for `CCN(CC)C(=O)N1CCc2ccc(Oc3ccc(C(F)(F)F)cc3)cc2C1` [P-0035, N,N-diethyl-7-(4-(trifluoromethyl)phen-oxy)-3,4-dihydroisoquin-oline-2(1H)-carboxamide] is 0.001 to 10 µM; for `C=C(C)OC(=O)N1CCc2ccc(Oc3ccc(C(F)(F)F)cc3)cc2C1` [P-0036, prop-1-en-2-yl 7-(4-(trifluoromethyl)phen-oxy)-3,4-dihydroiso-quinoline-2(1H)-carbox-ylate] it is 0.001 to 10 µM.

`O=C(NC1CCCC1)N1CCc2ccc(Oc3ccc(C(F)(F)F)cc3)cc2C1` [P-0037, N-cyclopentyl-7-(4-(trifluoromethyl)phen-oxy)-3,4-dihydroiso-quinoline-2(1H)-carbox-amide]: the IC50 lay within 0.001 to 10 µM.

With `O=C(NC1CCOC1)N1CCc2ccc(Oc3ccc(C(F)(F)F)cc3)cc2C1` (stereo not shown) [P-0038, N-(tetrahydrofuran-3-yl)-7-(4-(trifluorometh-yl)phenoxy)-3,4-dihydro-isoquinoline-2(1H)-carboxamide], the IC50 fell in the range of 0.001 to 10 µM. Turning to `NC(=O)CCC(=O)N1CCc2ccc(Oc3ccc(C(F)(F)F)cc3)cc2C1` [P-0039, 4-oxo-4-(7-(4-(trifluoro-methyl)phenoxy)-3,4-dihydroisoquinolin-2(1H)-yl)butanamide], the IC50 was in the range of 0.001 to 10 µM.

Take `N#CCCC(=O)N1CCc2ccc(Oc3ccc(C(F)(F)F)cc3)cc2C1` [P-0040, 4-oxo-4-(7-(4-(trifluoro-methyl)phenoxy)-3,4-dihydroisoquinolin-2(1H)-yl)butanenitrile]: the IC50 was 0.001 to 10 µM. Take `CP(C)(=O)CCC(=O)N1CCc2ccc(Oc3ccc(C(F)(F)F)cc3)cc2C1` [P-0041, 3-(dimethylphosphoryl)-1-(7-(4-(trifluorometh-yl)phenoxy)-3,4-dihydro-isoquinolin-2(1H)-yl)-propan-1-one]: the IC50 was 0.001 to 10 µM. In the case of `N#CC1CC(C(=O)N2CCc3ccc(Oc4ccc(C(F)(F)F)cc4)cc3C2)C1` (stereo not shown) [P-0042, 3-(7-(4-(trifluorometh-yl)phenoxy)-1,2,3,4-tetrahydroisoquinoline-2-carbonyl)cyclobutane-1-carbonitrile], the IC50 fell in the range of 0.001 to 10 µM. For the compound `O=C1CC(CC(=O)N2CCc3ccc(Oc4ccc(C(F)(F)F)cc4)cc3C2)C(=O)N1` (stereo not shown) [P-0043, 3-(2-oxo-2-(7-(4-(trifluoromethyl)phen-oxy)-3,4-dihydroiso-quinolin-2(1H)-yl)ethyl)-pyrrolidine-2,5-dione], the IC50 lay in the range of 0.001 to 10 µM. For the compound `O=C(CN1C(=O)CCC1=O)N1CCc2ccc(Oc3ccc(C(F)(F)F)cc3)cc2C1` [P-0044, 1-(2-oxo-2-(7-(4-(trifluoromethyl)phen-oxy)-3,4-dihydroiso-quinolin-2(1H)-yl)-ethyl)pyrrolidine-2,5-dione], the IC50 is 0.001 to 10 µM. Regarding `O=C(C1CCS(=O)(=O)C1)N1CCc2ccc(Oc3ccc(C(F)(F)F)cc3)cc2C1` (stereo not shown) [P-0045, (1,1-dioxidotetrahydro-thiophen-3-yl)(7-(4-(trifluoromethyl)phen-oxy)-3,4-dihydroisoquin-olin-2(1H)-yl)methanone], the IC50 is 0.001 to 10 µM. The figure for `Cc1nnc(CCC(=O)N2CCc3ccc(Oc4ccc(C(F)(F)F)cc4)cc3C2)s1` [P-0046, 3-(5-methyl-1,3,4-thiadi-azol-2-yl)-1-(7-(4-(trifluoromethyl)phen-oxy)-3,4-dihydroisoquin-olin-2(1H)-yl)propan-1-one] is 0.001 to 10 µM; for `O=C(Cc1cnccc1O)N1CCc2ccc(Oc3ccc(C(F)(F)F)cc3)cc2C1` [P-0047, 2-(4-hydroxypyridin-3-yl)-1-(7-(4-(trifluoro-methyl)phenoxy)-3,4-dihydroisoquinolin-2(1H)-yl)ethan-1-one] it is 0.001 to 10 µM; for `NS(=O)(=O)CCC(=O)N1CCc2ccc(Oc3ccc(C(F)(F)F)cc3)cc2C1` [P-0048, 3-oxo-3-(7-(4-(trifluoro-methyl)phenoxy)-3,4-dihydroisoquinolin-2(1H)-yl)propane-1-sulfonamide] it is 0.001 to 10 µM. As for `N#CCCS(=O)(=O)N1CCc2ccc(Oc3ccc(C(F)(F)F)cc3)cc2C1` [P-0049, 3-((7-(4-(trifluorometh-yl)phenoxy)-3,4-dihydro-isoquinolin-2(1H)-yl)sul-fonyl)propanenitrile], the IC50 lay in the range of 0.001 to 10 µM.

Consider `COC(=O)CCS(=O)(=O)N1CCc2ccc(Oc3ccc(C(F)(F)F)cc3)cc2C1` [P-0050, methyl 3-((7-(4-(trifluoro-methyl)phenoxy)-3,4-dihydroisoquinolin-2(1H)-yl)sulfonyl)pro-panoate], for which the IC50 lay in the range of 0.001 to 10 µM. Turning to `NC(=O)CCS(=O)(=O)N1CCc2ccc(Oc3ccc(C(F)(F)F)cc3)cc2C1` [P-0051, 3-((7-(4-(trifluorometh-yl)phenoxy)-3,4-dihydro-isoquinolin-2(1H)-yl)sul-fonyl)propanamide], the IC50 was in the range of 0.001 to 10 µM. `CS(=O)(=O)CCCC(=O)N1CCc2ccc(Oc3ccc(C(F)(F)F)cc3)cc2C1` [P-0052, 4-(methylsulfonyl)-1-(7-(4-(trifluoromethyl)phen-oxy)-3,4-dihydroisoquin-olin-2(1H)-yl)butan-1-one]: the IC50 fell in the range of 0.001 to 10 µM. Take `CS(=O)(=O)CCCN1CCc2ccc(Oc3ccc(C(F)(F)F)cc3)cc2C1` [P-0053, 2-(3-(methylsulfonyl)-propyl)-7-(4-(trifluoro-methyl)phenoxy)-1,2,3,4-tetrahydroisoquinoline]: the IC50 lay within 0.001 to 10 µM. Then `NS(=O)(=O)NCC(=O)N1CCc2ccc(Oc3ccc(C(F)(F)F)cc3)cc2C1` [P-0054, N-(2-(7-(4-(trifluorometh-yl)phenoxy)-3,4-dihydro-isoquinolin-2(1H)-yl)-2-oxoethyl)sulfamide], with 0.001 to 10 µM; and `CS(=N)(=O)CCC(=O)N1CCc2ccc(Oc3ccc(C(F)(F)F)cc3)cc2C1` (stereo not shown) [P-0055, imino(methyl)(3-oxo-3-(7-(4-(trifluoromethyl)-phenoxy)-3,4-dihydroiso-quinolin-2(1H)-yl)prop-yl)-16-sulfanone], with 0.001 to 10 µM; and `C[S+]([O-])CCC(=O)N1CCc2ccc(Oc3ccc(C(F)(F)F)cc3)cc2C1` (stereo not shown) [P-0056, 3-(methylsulfinyl)-1-(7-(4-(trifluoromethyl)phen-oxy)-3,4-dihydroisoquin-olin-2(1H)-yl)propan-1-one], with 0.001 to 10 µM. Take `O=C(O)CCC(=O)N1CCc2ccc(Oc3ccc(C(F)(F)F)cc3)cc2C1` [P-0057, 4-oxo-4-(7-(4-(trifluoro-methyl)phenoxy)-3,4-dihydroisoquinolin-2(1H)-yl)butanoic acid]: the IC50 lay in the range of 0.001 to 10 µM.

With `O=C(CCc1nnc[nH]1)N1CCc2ccc(Oc3ccc(C(F)(F)F)cc3)cc2C1` [P-0058, 3-(4H-1,2,4-triazol-3-yl)-1-(7-(4-(trifluorometh-yl)phenoxy)-3,4-dihydro-isoquinolin-2(1H)-yl)-propan-1-one], the IC50 fell in the range of 0.001 to 10 µM. `O=C(CC1CCS(=O)(=O)C1)N1CCc2ccc(Oc3ccc(C(F)(F)F)cc3)cc2C1` (stereo not shown) [P-0059, 2-(1,1-dioxidotetrahydro-thiophen-3-yl)-1-(7-(4-(trifluoromethyl)phen-oxy)-3,4-dihydroisoquin-olin-2(1H)-yl)ethan-1-one]: the IC50 fell in the range of 0.001 to 10 µM.

`N#CC1(CC(=O)N2CCc3ccc(Oc4ccc(C(F)(F)F)cc4)cc3C2)CC1` [P-0060, 1-(2-oxo-2-(7-(4-(trifluoromethyl)phen-oxy)-3,4-dihydroiso-quinolin-2(1H)-yl)-ethyl)cyclopropane-1-carbonitrile]: the IC50 lay in the range of 0.001 to 10 µM. The figure for `O=C(CCS(=O)(=O)C(F)(F)F)N1CCc2ccc(Oc3ccc(C(F)(F)F)cc3)cc2C1` [P-0061, 1-(7-(4-(trifluorometh-yl)phenoxy)-3,4-dihydro-isoquinolin-2(1H)-yl)-3-((trifluoromethyl)sulfon-yl)propan-1-one] is 0.001 to 10 µM; for `Cc1noc(CCC(=O)N2CCc3ccc(Oc4ccc(C(F)(F)F)cc4)cc3C2)n1` [P-0062, 3-(3-methyl-1,2,4-oxadi-azol-5-yl)-1-(7-(4-(trifluoromethyl)phen-oxy)-3,4-dihydroisoquin-olin-2(1H)-yl)propan-1-one] it is 0.001 to 10 µM; for `Cc1nnc(CCC(=O)N2CCc3ccc(Oc4ccc(C(F)(F)F)cc4)cc3C2)o1` [P-0063, 3-(5-methyl-1,3,4-oxadi-azol-2-yl)-1-(7-(4-(trifluoromethyl)phen-oxy)-3,4-dihydroisoquin-olin-2(1H)-yl)propan-1-one] it is 0.001 to 10 µM.

As for `N#Cc1ccncc1NC(=O)N1CCc2ccc(Oc3ccc(C(F)(F)F)cc3)cc2C1` [P-0064, N-(4-Cyanopyridin-3-yl)-7-(4-(trifluoromethyl)phenoxy)-3,4-dihydroisoquinoline-2(1H)-carboxamide], the IC50 was in the range of 0.001 to 10 µM.
